In ChEMBL document CHEMBL1201862, “PubChem BioAssay data set” (2004):
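Following 48 hours of exposure in 96-well plates, responses at five concentrations were used to interpolate endpoints linearly. GI50: concentration for 50% inhibition of growth.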 Active and inactive are the calls of the source. Cut-off read from the data, not from the text of the source: active = GI50 up to about 1.1 µM and inactive = higher.

Experiments:
Assay in all cases: NCI anticancer screen, dose series, 48 h
RXF 631 = tested on: RXF 631
M19-MEL = tested on: M19-MEL
HOP-18 = tested on: HOP-18
SNB-78 = tested on: SNB-78
DMS-273 = tested on: DMS-273
DLD-1 = tested on: DLD-1
DMS-114 = tested on: DMS-114
XF498 = tested on: XF498
T47D = tested on: T47D

Row | SMILES | GI50 (RXF 631) | GI50 (M19-MEL) | GI50 (HOP-18) | GI50 (SNB-78) | GI50 (DMS-273) | GI50 (DLD-1) | GI50 (DMS-114) | GI50 (XF498) | GI50 (T47D)
1 | CCCCCCCCCCCC(=O)c1c(O)cccc1O | 18.7 µM (inactive) | 18.8 µM (inactive) | 16.2 µM (inactive) | 21.8 µM (inactive) | 18.9 µM (inactive) | 17.8 µM (inactive) | 19.2 µM (inactive) | 18.3 µM (inactive) | –
2 | Oc1cc2cc(-c3ccccc3)[nH]c2c2ccccc12 | 22.7 µM (inactive) | 15.5 µM (inactive) | 32.7 µM (inactive) | 54.6 µM (inactive) | 0.592 µM (active) | 32 µM (inactive) | 13.6 µM (inactive) | 1.63 µM (inactive) | –
3 | Cc1ccc(S(=O)(=O)N/N=C(\c2nc3ccc(Cl)cc3nc2O)C(O)c2cccc([N+](=O)[O-])c2)cc1 (stereo not drawn) | > 100 µM (inactive) | > 100 µM (inactive) | > 100 µM (inactive) | > 100 µM (inactive) | > 100 µM (inactive) | > 100 µM (inactive) | > 100 µM (inactive) | > 100 µM (inactive) | –
4 | O=C1C=CC(=O)c2nc3c(cc21)CCC3 | > 100 µM (inactive) | 17.2 µM (inactive) | 14.5 µM (inactive) | 18.5 µM (inactive) | 20.3 µM (inactive) | 18.7 µM (inactive) | 18.3 µM (inactive) | 18.6 µM (inactive) | –
5 | c1ccc2c(c1)CCc1c(-c3n[nH]c4c3CCc3ccccc3-4)n[nH]c1-2 | > 100 µM (inactive) | > 100 µM (inactive) | > 100 µM (inactive) | > 100 µM (inactive) | > 100 µM (inactive) | > 100 µM (inactive) | > 100 µM (inactive) | > 100 µM (inactive) | –
6 | CNCCCNc1c2ccccc2nc2cccc([N+](=O)[O-])c12 | 0.0286 µM (active) | 0.00387 µM (active) | 0.0237 µM (active) | 0.00233 µM (active) | 0.0152 µM (active) | 0.00303 µM (active) | 0.00221 µM (active) | 0.00247 µM (active) | 0.00229 µM (active)
7 | CN(C)c1ccc(C(C=C2c3ccccc3Sc3ccccc32)=C(C#N)C#N)cc1 | > 100 µM (inactive) | > 100 µM (inactive) | > 100 µM (inactive) | 45.1 µM (inactive) | 6.81 µM (inactive) | > 100 µM (inactive) | 56.4 µM (inactive) | 58.7 µM (inactive) | –
8 | Nc1n[n+]([O-])c2ccccc2[n+]1[O-] [TIRAPAZAMINE] | > 100 µM (inactive) | 95.9 µM (inactive) | – | > 100 µM (inactive) | 52.2 µM (inactive) | – | 44.4 µM (inactive) | 44.4 µM (inactive) | –
